{"source": "paper PMC11995724", "about": "“Antibiotic target discovery by integrated phenotypic and activity-based profiling of electrophilic fragments” (Cell chemical biology, 2025)", "test": "in vitro", "settings": "human, hek293t cells", "note": "Where a name gives a salt, the structure may show the parent alone.", "protocol": "Mammalian cytotoxicity measurement was performed using Cell Titer-Glo 2.0 Cell Viability Assay (Promega, G9243) according to the manufacturer protocol. In brief, mammalian cells were seeded into 384-well white plates (Greiner, 781080) and incubated at 37°C for one day. Compounds from the Cys-Library were dispensed into the assay plate using epMotion 96. The plates were then incubated at 37°C for two days. An equal volume of Cell Titer-Glo 2.0 reagent was added into each well of the assay plate using epMotion 96 and incubated at 22°C for 10 min, followed by luminescence measurement using a Cytation 5 plate reader (BioTek).", "data": [{"smiles": "CC(Cl)C(=O)N1CCC(c2nc(N(C)C)no2)CC1", "note": "(centres unmarked) [6-F05, 2-chloro-1-{4-[3-(dimethylamino)-1,2,4-oxadiazol-5-yl]piperidin-1-yl}propan-1-one]", "values": [{"measurement": "viability at 48 h, 25 µM", "value": 108, "unit": "%"}]}, {"smiles": "CC(Cl)C(=O)NCCc1ccc(F)cc1", "note": "(centres unmarked) [6-F06, 2-chloro-N-[2-(4-fluorophenyl)ethyl]propanamide]", "values": [{"measurement": "viability at 48 h, 25 µM", "value": 112, "unit": "%"}]}, {"smiles": "CC(Cl)C(=O)NCC1CN(c2ccc(Cl)cc2)CCO1", "note": "(centres unmarked) [6-F07, 2-chloro-N-{[4-(4-chlorophenyl)morpholin-2-yl]methyl}propanamide]", "values": [{"measurement": "viability at 48 h, 25 µM", "value": 101, "unit": "%"}]}, {"smiles": "O=C(CCl)N1CCSc2c([nH]c3ccccc23)C1", "note": "[6-F08, 2-chloro-1-{2H,3H,4H,5H,6H-[1,4]thiazepino[6,7-b]indol-4-yl}ethan-1-one]", "values": [{"measurement": "viability at 48 h, 25 µM", "value": 1.68, "unit": "%"}]}, {"smiles": "CC(Cl)C(=O)NCc1nc(-c2cccc(C#N)c2)c[nH]1", "note": "(centres unmarked) [6-F09, 2-chloro-N-{[4-(3-cyanophenyl)-1H-imidazol-2-yl]methyl}propanamide]", "values": [{"measurement": "viability at 48 h, 25 µM", "value": 113, "unit": "%"}]}, {"smiles": "Cc1cccc(C)c1NC(=O)CNC(=O)C(C)Cl", "note": "(centres unmarked) [6-F10, 2-chloro-N-{[(2,6-dimethylphenyl)carbamoyl]methyl}propanamide]", "values": [{"measurement": "viability at 48 h, 25 µM", "value": 106, "unit": "%"}]}, {"smiles": "Cc1noc(C)c1CC(=O)N1CCN(C(=O)C(C)Cl)CC1", "note": "(centres unmarked) [6-F11, 2-chloro-1-{4-[2-(3,5-dimethyl-1,2-oxazol-4-yl)acetyl]piperazin-1-yl}propan-1-one]", "values": [{"measurement": "viability at 48 h, 25 µM", "value": 106, "unit": "%"}]}, {"smiles": "COc1ccc(NC(=O)C(C)Cl)cc1OC", "note": "(centres unmarked) [6-F12, 2-chloro-N-(3,4-dimethoxyphenyl)propanamide]", "values": [{"measurement": "viability at 48 h, 25 µM", "value": 109, "unit": "%"}]}, {"smiles": "CC(CNC(=O)C(C)Cl)Oc1cccc(Cl)c1", "note": "(centres unmarked) [6-F13, 2-chloro-N-[2-(3-chlorophenoxy)propyl]propanamide]", "values": [{"measurement": "viability at 48 h, 25 µM", "value": 103, "unit": "%"}]}, {"smiles": "CC(Cl)C(=O)NCc1nnnn1CC1CC1", "note": "(centres unmarked) [6-F14, 2-chloro-N-{[1-(cyclopropylmethyl)-1H-1,2,3,4-tetrazol-5-yl]methyl}propanamide]", "values": [{"measurement": "viability at 48 h, 25 µM", "value": 115, "unit": "%"}]}, {"smiles": "CC(Cl)C(=O)N1CCC(c2nccn2C)C1", "note": "(centres unmarked) [6-F15, 2-chloro-1-[3-(1-methyl-1H-imidazol-2-yl)pyrrolidin-1-yl]propan-1-one]", "values": [{"measurement": "viability at 48 h, 25 µM", "value": 98.6, "unit": "%"}]}, {"smiles": "CC(Cl)C(=O)N1CCCCC1C1CCCN(C(=O)C(F)(F)F)C1", "note": "(centres unmarked) [6-F16, 2-chloro-1-[1'-(2,2,2-trifluoroacetyl)-[2,3'-bipiperidin]-1-yl]propan-1-one]", "values": [{"measurement": "viability at 48 h, 25 µM", "value": 105, "unit": "%"}]}, {"smiles": "COc1ccc([C@H]2C[C@H](NC(=O)C(C)Cl)C2)cc1F", "note": "(some centres unmarked) [6-F17, 2-chloro-N-[(1r,3r)-3-(3-fluoro-4-methoxyphenyl)cyclobutyl]propanamide]", "values": [{"measurement": "viability at 48 h, 25 µM", "value": 91.5, "unit": "%"}]}, {"smiles": "CC(Cl)C(=O)N1CCn2c(Cc3c(F)cccc3F)nnc2C1", "note": "(centres unmarked) [6-F18, 2-chloro-1-{3-[(2,6-difluorophenyl)methyl]-5H,6H,7H,8H-[1,2,4]triazolo[4,3-a]pyrazin-7-yl}propan-1-one]", "values": [{"measurement": "viability at 48 h, 25 µM", "value": 100, "unit": "%"}]}, {"smiles": "O=C(CCl)NC(CC1CC1)c1ccc(Cl)cn1", "note": "(centres unmarked) [6-F19, 2-chloro-N-[1-(5-chloropyridin-2-yl)-2-cyclopropylethyl]acetamide]", "values": [{"measurement": "viability at 48 h, 25 µM", "value": 1.46, "unit": "%"}]}, {"smiles": "CC(Cl)C(=O)N1Cc2ccccc2C(n2cccn2)C1", "note": "(centres unmarked) [6-F20, 2-chloro-1-[4-(1H-pyrazol-1-yl)-1,2,3,4-tetrahydroisoquinolin-2-yl]propan-1-one]", "values": [{"measurement": "viability at 48 h, 25 µM", "value": 103, "unit": "%"}]}, {"smiles": "CC(Cl)C(=O)NC1(c2nnc[nH]2)CCC1", "note": "(centres unmarked) [6-F21, 2-chloro-N-[1-(4H-1,2,4-triazol-3-yl)cyclobutyl]propanamide]", "values": [{"measurement": "viability at 48 h, 25 µM", "value": 87.6, "unit": "%"}]}, {"smiles": "CC(Cl)C(=O)N1CCn2c(C#N)ccc2C1C", "note": "(centres unmarked) [6-F22, 2-(2-chloropropanoyl)-1-methyl-1H,2H,3H,4H-pyrrolo[1,2-a]pyrazine-6-carbonitrile]", "values": [{"measurement": "viability at 48 h, 25 µM", "value": 98.2, "unit": "%"}]}, {"smiles": "O=C(CCl)NCCOc1cccc(F)c1", "note": "[6-G03, 2-chloro-N-[2-(3-fluorophenoxy)ethyl]acetamide]", "values": [{"measurement": "viability at 48 h, 25 µM", "value": 97.9, "unit": "%"}]}, {"smiles": "O=C(CCl)NCc1ccc(C(=O)N2CCCC2)cc1", "note": "[6-G04, 2-chloro-N-{[4-(pyrrolidine-1-carbonyl)phenyl]methyl}acetamide]", "values": [{"measurement": "viability at 48 h, 25 µM", "value": 107, "unit": "%"}]}, {"smiles": "O=C(CCl)NCCOc1cccc(Cl)c1", "note": "[6-G05, 2-chloro-N-[2-(3-chlorophenoxy)ethyl]acetamide]", "values": [{"measurement": "viability at 48 h, 25 µM", "value": 107, "unit": "%"}]}, {"smiles": "CC(c1cccc([N+](=O)[O-])c1)N(C)C(=O)CCl", "note": "(centres unmarked) [6-G06, 2-chloro-N-methyl-N-[1-(3-nitrophenyl)ethyl]acetamide]", "values": [{"measurement": "viability at 48 h, 25 µM", "value": 1.19, "unit": "%"}]}, {"smiles": "CC(Cl)C(=O)Nc1ccc(NC(=O)c2cccs2)cc1", "note": "(centres unmarked) [6-G07, N-[4-(2-chloropropanamido)phenyl]thiophene-2-carboxamide]", "values": [{"measurement": "viability at 48 h, 25 µM", "value": 101, "unit": "%"}]}, {"smiles": "O=C(CCl)NCc1ccc(OC(F)(F)F)cc1", "note": "[6-G08, 2-chloro-N-{[4-(trifluoromethoxy)phenyl]methyl}acetamide]", "values": [{"measurement": "viability at 48 h, 25 µM", "value": 1.3, "unit": "%"}]}, {"smiles": "COc1cc2c(cc1NC(=O)C(C)Cl)oc1ccccc12", "note": "(centres unmarked) [6-G09, 2-chloro-N-{4-methoxy-8-oxatricyclo[7.4.0.0,2,7]trideca-1(9),2(7),3,5,10,12-hexaen-5-yl}propanamide]", "values": [{"measurement": "viability at 48 h, 25 µM", "value": 93, "unit": "%"}]}, {"smiles": "CC(Cl)C(=O)Nc1ccccc1C(=O)c1ccccc1", "note": "(centres unmarked) [6-G10, N-(2-benzoylphenyl)-2-chloropropanamide]", "values": [{"measurement": "viability at 48 h, 25 µM", "value": 102, "unit": "%"}]}, {"smiles": "CC1CN(CCCNC(=O)CCl)CC(C)O1", "note": "(centres unmarked) [6-G11, 2-chloro-N-[3-(2,6-dimethylmorpholin-4-yl)propyl]acetamide hydrochloride]", "values": [{"measurement": "viability at 48 h, 25 µM", "value": 116, "unit": "%"}]}, {"smiles": "O=C(CCl)N1CCC(CCc2ccccc2)CC1", "note": "[6-G12, 2-chloro-1-[4-(2-phenylethyl)piperidin-1-yl]ethan-1-one]", "values": [{"measurement": "viability at 48 h, 25 µM", "value": 1.05, "unit": "%"}]}, {"smiles": "COc1ccc(S(=O)(=O)N2CCCCC2)cc1NC(=O)CCl", "note": "[6-G13, 2-chloro-N-[2-methoxy-5-(piperidine-1-sulfonyl)phenyl]acetamide]", "values": [{"measurement": "viability at 48 h, 25 µM", "value": 1.34, "unit": "%"}]}, {"smiles": "O=C(CCl)Nc1cc(S(=O)(=O)N2CCCC2)ccc1Cl", "note": "[6-G14, 2-chloro-N-[2-chloro-5-(pyrrolidine-1-sulfonyl)phenyl]acetamide]", "values": [{"measurement": "viability at 48 h, 25 µM", "value": 1.44, "unit": "%"}]}, {"smiles": "COc1ccc(Cl)cc1NC(=O)C(C)Cl", "note": "(centres unmarked) [6-G16, 2-chloro-N-(5-chloro-2-methoxyphenyl)propanamide]", "values": [{"measurement": "viability at 48 h, 25 µM", "value": 112, "unit": "%"}]}, {"smiles": "O=C(CCl)NCC(c1ccccc1Cl)N1CCCC1", "note": "(centres unmarked) [6-G17, 2-chloro-N-[2-(2-chlorophenyl)-2-(pyrrolidin-1-yl)ethyl]acetamide hydrochloride]", "values": [{"measurement": "viability at 48 h, 25 µM", "value": 104, "unit": "%"}]}, {"smiles": "O=C(CCl)NC1CCN(Cc2ccccc2)C1", "note": "(centres unmarked) [6-G18, N-(1-benzylpyrrolidin-3-yl)-2-chloroacetamide hydrochloride]", "values": [{"measurement": "viability at 48 h, 25 µM", "value": 3.85, "unit": "%"}]}, {"smiles": "O=C(CCl)NC1CCC(c2nc(-c3ccccc3)n[nH]2)CC1", "note": "(centres unmarked) [6-G19, 2-chloro-N-[4-(3-phenyl-1H-1,2,4-triazol-5-yl)cyclohexyl]acetamide]", "values": [{"measurement": "viability at 48 h, 25 µM", "value": 39.3, "unit": "%"}]}, {"smiles": "O=C(CCl)N[C@H](CO)Cc1ccccc1", "note": "[6-G20, 2-chloro-N-[(2S)-1-hydroxy-3-phenylpropan-2-yl]acetamide]", "values": [{"measurement": "viability at 48 h, 25 µM", "value": 81.9, "unit": "%"}]}, {"smiles": "C[C@@H](NC(=O)CCl)c1ccc(F)cc1", "note": "[6-G21, 2-chloro-N-[(1R)-1-(4-fluorophenyl)ethyl]acetamide]", "values": [{"measurement": "viability at 48 h, 25 µM", "value": 129, "unit": "%"}]}, {"smiles": "O=C(CCl)NCCc1cnn(-c2ccccc2)c1", "note": "[6-G22, 2-chloro-N-[2-(1-phenyl-1H-pyrazol-4-yl)ethyl]acetamide]", "values": [{"measurement": "viability at 48 h, 25 µM", "value": 1.31, "unit": "%"}]}, {"smiles": "O=C(CCl)Nc1cc(S(=O)(=O)N2CCOCC2)ccc1Cl", "note": "[6-H03, 2-chloro-N-[2-chloro-5-(morpholine-4-sulfonyl)phenyl]acetamide]", "values": [{"measurement": "viability at 48 h, 25 µM", "value": 1.8, "unit": "%"}]}]}
